Source: patent publication US4303785A, “Antitumor anthracycline antibiotics” (priority 1978, dated 1981)
Values after ≈ are worked out from the molar mass of the structure shown. Read-outs that look alike come from different tables or passages of the source.

Assays:
L1210 cells = assay: Inhibition of 14C-uridine and 14C-thymidine incorporation (nucleic acid synthesis) in L1210 cells in culture (Table 5); type: cell-based; settings: 60 min. at 37° C.; for IC50: Mus musculus, L1210, 1 h
Procedure: The effect of the tetrahydropyranyl ether derivatives of formula I' on nucleic acid synthesis was examined as follows: […]
1×10^5 cells/ml. of L1210 cells were suspended in RPMI medium containing 10% calf serum, pre-cultivated at 37° C. for 1 to 2 hours in a CO2 incubator and then the test compounds were added to the medium at various concentrations. After 15 min. of incubation, ^14 C-uridine (0.05 μCi/ml.) or ^14 C-thymidine (0.05 μCi/ml.) was added and incubated at 37° C. for 60 min. Trichloroacetic acid (TCA) (10%) was added to the incubation medium to stop the reaction and precipitate the acid-insoluble materials, and then the precipitate was washed three times with 5 to 10% […]. The radioactivity was measured and expressed as 50% inhibition concentration of incorporation.

Staph. aureus FDA 209P = assay: Minimum inhibitory concentration, broth dilution method (Table 3); type: cell-based; settings: for MIC: Staphylococcus aureus, FDA209P
Description: (§1) To illustrate such activity, minimum inhibitory concentrations (as determined by the broth dilution method) of representative compounds are shown in Table 3.

Sarcina lutea PCI 1001 = assay: as above; type: cell-based; settings: for MIC: Micrococcus luteus, PCI1001
Description: as §1

[1] = tested on: Bacillus cereus ATCC 10702; assay: as above; type: cell-based; settings: for MIC: ATCC10702
Description: as §1

[2] = tested on: Pseudomonas aeruginosa A3; assay: as above; type: cell-based; settings: for MIC: Pseudomonas aeruginosa, A3, Pseudomonas aeruginosa A3; for Minimum Inhibitory Concentration (MIC): Pseudomonas aeruginosa A3
Description: as §1

Staph. aureus Smith = assay: as above; type: cell-based
Description: as §1

Candida albicans = assay: as above; type: cell-based
Description: as §1

[3] = tested on: Corynebacterium bovis 1810; assay: as above; type: cell-based
Description: as §1

[4] = tested on: Micrococcus flavus FDA 16; assay: as above; type: cell-based; settings: for MIC: Micrococcus flavus, FDA16, Micrococcus flavus FDA 16; for Minimum Inhibitory Concentration (MIC): Micrococcus flavus FDA 16
Description: as §1

[5] = tested on: Bacillus subtillis NRRLB-558; assay: as above; type: cell-based; settings: for MIC: Bacillus, NRRLB558, Bacillus subtillis NRRLB-558; for Minimum Inhibitory Concentration (MIC): Bacillus subtillis NRRLB-558
Description: as §1

Escherichia coli NIHJ = assay: as above; type: cell-based
Description: as §1

Bacillus megaterium APF = assay: as above; type: cell-based
Description: as §1

[6] = tested on: Mycobacterium smegmatis ATCC 607; assay: as above; type: cell-based; settings: for MIC: Mycolicibacterium smegmatis, ATCC607
Description: as §1

L1210 leukemia = assay: Antitumor activity in BDF1 mice inoculated with L1210 leukemia cells (Table 6); type: in vivo; settings: once daily for 10 days
Description: As an example, BDF1 mice were inoculated intraperitoneally with 1×10^6 cells/mouse of L1210 leukemia cells.

L1210 leukemia cells = assay: Growth inhibitory effect on L1210 cells in culture (Table 4); type: cell-based; settings: for inhibition at 0.1 µg/mL / inhibition at 0.5 µg/mL: Mus musculus, read-out: Inhibition Rate (growth); for inhibition at 0.1 µg/mL: L1210, 0.1 μg./ml.; for inhibition at 0.5 µg/mL: L1210, 0.5 μg./ml.
Procedure: For example, L1210 cells (5×10^4 cells/ml.) were inoculated in RPMI 1640 medium (Roswell Park Memorial Institute 1640) containing 20% calf serum and cultivated at 37° C. in the presence of 0.1 and 0.5 μg./ml. of the test compounds in a CO2 incubator.

[7] = tested on: NADPH-cytochrome P450 reductase; assay: Stability on rat hepatic NADPH-cytochrome P450 reductase: 7-deoxyaglycone formed (Table 7); type: in vitro ADME; settings: 25° C., 25 min., nitrogen; substrate 0.1 mM, NADPH 0.2 mM, enzyme 4.6 μg./ml, pH 8.0
Procedure: C. The marked antitumor effects seen from A and B above were confirmed by the stability of the test compounds on the inactivation by hepatic NADPH-cytochrome P450 reductase. Specifically, NADPH-cytochrome P450 reductase purified from rat liver homogenate was incubated with the tetrahydropyranyl ether derivatives of formula I' at 25° C. for 25 min. in nitrogen gas phase, and the incubation product formed, 7-deoxyaglycone, was determined as shown in Table 7.

[8] = thymidine, read-out: 50% Inhibition Concentration of 14C-Thymidine Incorporation
[9] = uridine, read-out: 50% Inhibition Concentration of 14C-Uridine Incorporation

Row | Compound | IC50 (L1210 cells; [8]) | IC50 (L1210 cells; [9]) | MIC (Staph. aureus FDA 209P) | MIC (Sarcina lutea PCI 1001) | MIC [1] | Antitumor Activity (T/C, prolongation rate of survival day) (L1210 leukemia; 0.15 mg./kg./day i.p.) | Antitumor Activity (T/C, prolongation rate of survival day) (L1210 leukemia; 0.3 mg./kg./day i.p.) | Antitumor Activity (T/C, prolongation rate of survival day) (L1210 leukemia; 0.6 mg./kg./day i.p.) | Antitumor Activity (T/C, prolongation rate of survival day) (L1210 leukemia; 1.25 mg./kg./day i.p.) | Antitumor Activity (T/C, prolongation rate of survival day) (L1210 leukemia; 2.5 mg./kg./day i.p.) | inhibition at 0.1 µg/mL (L1210 leukemia cells) | inhibition at 0.5 µg/mL (L1210 leukemia cells) | Product (7-Deoxyaglycone) [7] | Minimum Inhibitory Concentration (MIC) (Staph. aureus Smith) | Minimum Inhibitory Concentration (MIC) (Bacillus megaterium APF) | Antitumor Activity (T/C, prolongation rate of survival day) (L1210 leukemia; 5 mg./kg./day i.p.) | 50% Inhibition Concentration of 14C-Thymidine Incorporation (L1210 cells; thymidine) | 50% Inhibition Concentration of 14C-Uridine Incorporation (L1210 cells; uridine) | Inhibition Rate (growth) (L1210 leukemia cells; 0.1 μg./ml.) | Inhibition Rate (growth) (L1210 leukemia cells; 0.5 μg./ml.) | other results
1 | COc1cccc2c1C(=O)c1c(O)c3c(c(O)c1C2=O)C[C@@](O)(C(=O)CO)C[C@@H]3O[C@H]1C[C@H](N)[C@H](OC2CCCCO2)[C@H](C)O1 (single isomer, unassigned; isomer a) [4'-O-PAa, 4'-O-tetrahydropyranyl adriamycin (isomer a)] | 0.37 µg/mL (≈ 0.59 µM) | 0.2 µg/mL (≈ 0.319 µM) | 6.25 µg/mL (≈ 9.96 µM) | 0.78 µg/mL (≈ 1.24 µM) | 6.25 µg/mL (≈ 9.96 µM) | 127% | 120% | 187% | 180% | 173% | 65.9% | 81.1% |  |  |  |  |  |  |  |  | MIC [2]: > 100 µg/mL; MIC (Staph. aureus Smith; Staphylococcus aureus): 6.25 µg/mL (≈ 9.96 µM); MIC (Candida albicans): > 100 µg/mL; MIC [3]: 3.12 µg/mL (≈ 4.97 µM); MIC [4]: 3.12 µg/mL (≈ 4.97 µM); MIC [5]: 3.12 µg/mL (≈ 4.97 µM); MIC (Escherichia coli NIHJ): > 100 µg/mL; MIC (Bacillus megaterium APF; Priestia megaterium): 3.12 µg/mL (≈ 4.97 µM); MIC [6]: 100 µg/mL (≈ 159 µM)
2 | COc1cccc2c1C(=O)c1c(O)c3c(c(O)c1C2=O)C[C@@](O)(C(C)=O)C[C@@H]3O[C@H]1C[C@H](N)[C@H](OC2CCCCO2)[C@H](C)O1 (single isomer, unassigned; isomer a) [4'-O-PDa, 4'-O-tetrahydropyranyl daunomycin (isomer a)] | 0.28 µg/mL (≈ 0.458 µM) | 0.13 µg/mL (≈ 0.213 µM) | 6.25 µg/mL (≈ 10.2 µM) | 0.39 µg/mL (≈ 0.638 µM) | 6.25 µg/mL (≈ 10.2 µM) | 90% | 96% | 115% | 122% | > 320% | 79.2% | 95% | 37.3 nmoles/tube | 12.5 µg/mL | 6.25 µg/mL | > 320% |  |  |  |  | MIC [2]: > 100 µg/mL; MIC (Candida albicans): > 50 µg/mL; MIC [3]: 0.78 µg/mL (≈ 1.28 µM); MIC [4]: 0.78 µg/mL (≈ 1.28 µM); MIC [5]: 3.12 µg/mL (≈ 5.1 µM); MIC (Escherichia coli NIHJ): > 100 µg/mL; MIC [6]: 6.25 µg/mL (≈ 10.2 µM)
3 | COc1cccc2c1C(=O)c1c(O)c3c(c(O)c1C2=O)C[C@@](O)(C(=O)COC1CCCCO1)C[C@@H]3O[C@H]1C[C@H](N)[C@H](OC2CCCCO2)[C@H](C)O1 (single isomer, unassigned; isomer b) [4',14-di-O-PAb, 4',14-bis(O-tetrahydropyranyl)adriamycin (isomer b)] |  |  |  |  |  | 115% | 96% | 103% | 103% | 109% |  |  | 15.8 nmoles/tube |  |  | 161% | 0.97 µg/mL | 0.24 µg/mL | 25.5% | 72.1% | 
4 | COc1cccc2c1C(=O)c1c(O)c3c(c(O)c1C2=O)C[C@@](O)(C(=O)CO)C[C@@H]3O[C@H]1C[C@H](N)[C@H](OC2CCCCO2)[C@H](C)O1 (single isomer, unassigned; isomer b) [4'-O-PAb, 4'-O-tetrahydropyranyl adriamycin (isomer b)] |  |  |  |  |  | 113% | 160% | 293% | > 373% | > 360% |  |  |  | 6.25 µg/mL | 3.12 µg/mL | > 375% | 0.50 µg/mL | 0.24 µg/mL | 78.1% | 92.9% | Minimum Inhibitory Concentration (MIC) (Staph. aureus FDA 209P): 6.25 µg/mL; Minimum Inhibitory Concentration (MIC) (Sarcina lutea PCI 1001): 0.78 µg/mL; Minimum Inhibitory Concentration (MIC) [1]: 6.25 µg/mL; Minimum Inhibitory Concentration (MIC) [2]: > 100 µg/mL; Minimum Inhibitory Concentration (MIC) (Candida albicans): > 50 µg/mL; Minimum Inhibitory Concentration (MIC) [3]: 3.12 µg/mL; Minimum Inhibitory Concentration (MIC) [4]: 3.12 µg/mL; Minimum Inhibitory Concentration (MIC) [5]: 3.12 µg/mL; Minimum Inhibitory Concentration (MIC) (Escherichia coli NIHJ): > 100 µg/mL; Minimum Inhibitory Concentration (MIC) [6]: 100 µg/mL
5 | COc1cccc2c1C(=O)c1c(O)c3c(c(O)c1C2=O)C[C@@](O)(C(C)=O)C[C@@H]3O[C@H]1C[C@H](N)[C@H](OC2CCCCO2)[C@H](C)O1 (single isomer, unassigned; isomer b) [4'-O-PDb, 4'-O-tetrahydropyranyl daunomycin (isomer b)] |  |  |  |  |  | 90% | 103% | 115% | 122% | 256% |  |  | 46.6 nmoles/tube | 3.12 µg/mL | 3.12 µg/mL | > 320% | 0.32 µg/mL | 0.20 µg/mL | 74.6% | 88.8% | Minimum Inhibitory Concentration (MIC) (Staph. aureus FDA 209P): 6.25 µg/mL; Minimum Inhibitory Concentration (MIC) (Sarcina lutea PCI 1001): 0.39 µg/mL; Minimum Inhibitory Concentration (MIC) [1]: 6.25 µg/mL; Minimum Inhibitory Concentration (MIC) [2]: > 50 µg/mL; Minimum Inhibitory Concentration (MIC) (Candida albicans): 25 µg/mL; Minimum Inhibitory Concentration (MIC) [3]: 0.78 µg/mL; Minimum Inhibitory Concentration (MIC) [4]: 1.56 µg/mL; Minimum Inhibitory Concentration (MIC) [5]: 1.56 µg/mL; Minimum Inhibitory Concentration (MIC) (Escherichia coli NIHJ): > 100 µg/mL; Minimum Inhibitory Concentration (MIC) [6]: 6.25 µg/mL
6 | COc1cccc2c1C(=O)c1c(O)c3c(c(O)c1C2=O)C[C@@](O)(C(=O)COC1CCCCO1)C[C@@H]3O[C@H]1C[C@H](N)[C@H](O)[C@H](C)O1 (stereo partly drawn) [Example 14-O-PA, 14-O-tetrahydropyranyl adriamycin] | 0.42 µg/mL (≈ 0.669 µM) | 0.17 µg/mL (≈ 0.271 µM) |  |  |  | 103% | 110% | 113% | 126% | 130% | 7.6% | 58.3% | 18.4 nmoles/tube |  |  | 142% |  |  |  |  | 
